Assay results as given in US10087148B2, “Quinazolines as biogenic amine transport modulators” (THE UNITED STATES OF AMERICA AS REPRESENTED BY THE …, priority 2014, dated 2018).

Experiments:
[1] = biological target: T1, dopamine transporter (DAT) (Rattus norvegicus (Rat), UniProt P23977); assay: [3H]dopamine (DA) uptake inhibition in rat brain (caudate) synaptosomes; format: biochemical
[2] = biological target: serotonin transporter (SERT) (Rattus norvegicus (Rat), UniProt P31652); assay: [3H]serotonin (5-HT) uptake inhibition in rat brain synaptosomes; format: biochemical; conditions: mean ± S.D., n = 3; for Emax: read-out: SERT Uptake Emax
[3] = biological target: norepinephrine transporter (NET) (Rattus norvegicus, UniProt Q63380); assay: [3H]norepinephrine (NE) uptake inhibition in rat brain synaptosomes; format: biochemical; conditions: for Emax: read-out: NET Uptake Emax; for IC50: read-out: NET Uptake IC50, mean ± S.D., n = 3
[4] = biological target: T1, dopamine transporter (DAT); assay: Dopamine transporter-mediated [3H]MPP+ release (d-amphetamine-induced, shift experiments) in rat caudate synaptosomes; format: biochemical; conditions: for Apparent Kc / Emax: [3H]MPP+ release; for Apparent Kc: [Blocker]/((EC50-2/EC50-1) − 1); for Emax: read-out: d-Amphetamine Emax in presence of blocker, blocker concentration per row, mean ± S.D., n = 3
DAT [5] = biological target: T2, DAT (Rattus norvegicus (Rat), UniProt P23977); assay: Inhibition of [3H]WIN35428 binding to rat caudate DAT; conditions: [3H]WIN35428
Method: All of the test compounds were synthesized as described herein. […] The data from three experiments were pooled and fit to a dose-response curve equation (using KaleidaGraph; Synergy Software, Reading, Pa.) to yield an Emax and IC50 value. […] Selected compounds were also tested for their ability to inhibit [^3H]WIN35428 binding to rat caudate DAT.

DAT [6] = biological target: T2, DAT; assay: d-amphetamine-induced, DAT-mediated [3H]DA release (shift experiments); format: biochemical; conditions: for Apparent Kc: [Blocker]/((EC50-2/EC50-1) − 1); for Emax: read-out: d-Amphetamine Emax in presence of blocker, blocker concentration per row, mean ± S.D., n = 3
[7] = mean ± S.D., n = 3, read-out: DAT Uptake Emax
[8] = values in Table 9, read-out: Emax for DAT Uptake Inhibition
[9] = mean ± S.D., n = 3, unit as printed in head (text gives 1100 nM where table prints 1.1)

T2 sequence (P23977 whole entry): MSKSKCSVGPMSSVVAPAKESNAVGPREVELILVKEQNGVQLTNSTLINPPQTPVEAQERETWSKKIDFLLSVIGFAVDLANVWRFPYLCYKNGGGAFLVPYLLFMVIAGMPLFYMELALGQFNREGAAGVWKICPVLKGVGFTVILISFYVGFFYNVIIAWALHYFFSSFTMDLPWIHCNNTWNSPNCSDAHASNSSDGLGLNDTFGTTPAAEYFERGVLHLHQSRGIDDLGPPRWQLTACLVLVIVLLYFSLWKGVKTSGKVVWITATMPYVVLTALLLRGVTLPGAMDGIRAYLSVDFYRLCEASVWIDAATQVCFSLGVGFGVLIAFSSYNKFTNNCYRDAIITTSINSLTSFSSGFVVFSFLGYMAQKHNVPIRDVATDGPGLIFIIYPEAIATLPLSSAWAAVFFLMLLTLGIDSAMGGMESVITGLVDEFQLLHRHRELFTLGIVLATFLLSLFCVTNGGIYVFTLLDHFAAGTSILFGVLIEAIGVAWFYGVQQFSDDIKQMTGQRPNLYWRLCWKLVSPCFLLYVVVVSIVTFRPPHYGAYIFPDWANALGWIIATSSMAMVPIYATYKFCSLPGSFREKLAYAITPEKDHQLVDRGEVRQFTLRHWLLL
T1 sequence (P23977 whole entry): as above
Chain of norepinephrine transporter (NET) (Q63380 1-617): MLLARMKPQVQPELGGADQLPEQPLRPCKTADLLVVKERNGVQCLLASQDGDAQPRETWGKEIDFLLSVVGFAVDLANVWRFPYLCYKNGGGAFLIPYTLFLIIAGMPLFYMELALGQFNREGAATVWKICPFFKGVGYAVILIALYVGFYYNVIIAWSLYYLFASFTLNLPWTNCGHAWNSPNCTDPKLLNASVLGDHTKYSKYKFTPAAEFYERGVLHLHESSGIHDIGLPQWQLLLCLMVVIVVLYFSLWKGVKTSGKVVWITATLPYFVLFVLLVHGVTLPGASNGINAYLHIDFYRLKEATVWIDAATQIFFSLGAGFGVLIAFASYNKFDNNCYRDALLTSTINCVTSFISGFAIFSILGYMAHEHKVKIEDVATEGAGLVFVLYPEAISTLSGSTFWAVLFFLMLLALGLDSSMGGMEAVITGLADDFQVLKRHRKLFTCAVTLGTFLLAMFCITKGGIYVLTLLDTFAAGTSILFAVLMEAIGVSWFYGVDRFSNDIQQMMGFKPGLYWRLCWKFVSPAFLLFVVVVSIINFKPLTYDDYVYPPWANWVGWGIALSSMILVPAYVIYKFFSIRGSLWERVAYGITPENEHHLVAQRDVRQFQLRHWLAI
Chain of serotonin transporter (SERT) (P31652 whole entry): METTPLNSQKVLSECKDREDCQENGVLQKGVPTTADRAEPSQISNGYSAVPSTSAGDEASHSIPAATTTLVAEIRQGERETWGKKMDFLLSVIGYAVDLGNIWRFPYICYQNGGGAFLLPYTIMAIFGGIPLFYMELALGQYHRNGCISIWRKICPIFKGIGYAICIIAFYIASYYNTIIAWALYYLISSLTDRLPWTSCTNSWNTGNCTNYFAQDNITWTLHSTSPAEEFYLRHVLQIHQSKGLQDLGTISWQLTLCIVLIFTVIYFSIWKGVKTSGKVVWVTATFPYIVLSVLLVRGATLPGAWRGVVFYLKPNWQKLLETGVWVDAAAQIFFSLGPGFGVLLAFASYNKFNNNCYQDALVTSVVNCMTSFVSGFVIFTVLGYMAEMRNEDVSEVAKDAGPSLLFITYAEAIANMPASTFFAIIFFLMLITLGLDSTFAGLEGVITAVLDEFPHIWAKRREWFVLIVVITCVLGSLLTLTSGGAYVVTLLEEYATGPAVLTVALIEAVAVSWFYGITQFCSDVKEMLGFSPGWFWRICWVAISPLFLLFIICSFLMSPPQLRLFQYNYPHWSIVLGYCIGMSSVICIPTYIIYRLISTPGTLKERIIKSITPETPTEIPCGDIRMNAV

Row | Compound | IC50 ([1]; mean ± S.D., n = 3) [nM] | Emax [1, 7] [%] | Emax [1, 8] [%] | IC50 [2] [nM] | Emax [2] [%] | Emax [3] [%] | IC50 [3] [nM] | Apparent Kc [4] [nM] | Emax [4] [%] | Emax (DAT [5]; mean ± S.D., n = 3) [%] | IC50 (DAT [5]; [9]) [nM] | Apparent Kc (DAT [6]) [µM] | Emax (DAT [6]) [%] | Efficacy of [3H]DA (DAT) uptake inhibition, in words [1] | Effect on d-amphetamine-induced DAT-mediated [3H]MPP+ release curve, in words ([4]; blocking concentration ~25 times DAT uptake IC50) | Inhibition of DAT binding, in words (DAT [5]) | DAT Binding Emax (DAT [5]; mean ± S.D., n = 3) | DAT Binding IC50 (DAT [5]; [9])
1 | c1ccc(C(CCNc2nc(-c3ccc4[nH]ccc4c3)nc3ccccc23)c2ccccc2)cc1 [SRI-29213] | 16 ± 4 | 81 ± 3 | 81 | 89 ± 51 | 43 ± 4 | 77 ± 3 | 346 ± 59 | 886 | 78 ± 2 | 94 ± 2 | 200 | 6.7 | 71 ± 3 |  |  |  |  | 
2 | CN(C)c1ccc(-c2nc(NCC(c3ccccc3)c3ccccc3)c3ccccc3n2)cn1 [SRI-29779] |  | 63 ± 3 | 63 |  | 51 ± 2 | 71 ± 6 | 147 ± 63 | 912 | 99 ± 2 | 83 ± 3 | 1200 ± 200 |  |  |  |  |  |  | 
3 | c1ccc(C(CNc2nc(-c3ccc4nccn4c3)nc3ccccc23)c2ccccc2)cc1 [SRI-29574] |  | 68 ± 2 | 68 |  | 52 ± 2 | 72 ± 4 | 52 ± 15 | -368 | 103 ± 3 |  |  | -0.239 | 95 ± 2 | partially inhibited | increased EC50 and decreased Emax | inactive | Inactive | Inactive
